Results as given in ChEMBL document CHEMBL1149567, “Synthesis and pharmacological evaluation of condensed heterocyclic 6-substituted-1,2,4-triazolo[3,4-b]-1,3,4-thiadiazole derivatives of naproxen” (Bioorg Med Chem Lett, 2007).

What was measured:
Rattus norvegicus [1] = species on record: Rattus norvegicus; assay: Effect on lipid peroxidation in rat gastric mucosa assessed as malondialdehyde level per 100 mg of tissue; type: functional, organism-based
Rattus norvegicus [2] = assay: Analgesic activity in po dosed rat; type: functional
Rattus norvegicus [3] = assay: Toxicity assessed as ulcerogenic activity in po dosed rat; type: organism-based; conditions: in vivo
Rattus norvegicus [4] = assay: Antiinflammatory activity against carrageenan-induced paw edema in po dosed rat after 4 hrs; type: functional
Rattus norvegicus [5] = assay: Analgesic activity in rat at 30 mg/kg, po; conditions: read-out: Inhibition
Rattus norvegicus [6] = assay: Antiinflammatory activity against carrageenan-induced paw edema in rat at 30 mg/kg, po after 4 hrs; conditions: read-out: Inhibition

SMILES | Activity (Rattus norvegicus [1]) | Inhibition (Rattus norvegicus [2]) | UI (Rattus norvegicus [3]) | Inhibition (Rattus norvegicus [4]) | inhibition in vivo at 30 mg/kg (Rattus norvegicus [5]) | inhibition in vivo at 30 mg/kg (Rattus norvegicus [6])
COc1ccc2cc(C(C)c3nnc4sc(-c5ccccc5)nn34)ccc2c1 (stereo unspecified) | 4.86 nmol | 89.5% | 0.5 | 81.05% |  | 
COc1ccc2cc(C(C)c3nnc4sc(Nc5ccc(C)cc5C)nn34)ccc2c1 (stereo unspecified) | 6.11 nmol | 33.3% | 0.833 | 76.51% |  | 
COc1ccc2cc([C@H](C)C(=O)O)ccc2c1 [NAPROXEN] | 9.04 nmol |  |  |  | 73.5% | 81.8%
COc1ccc2cc(C(C)c3nnc4sc(COc5ccc(Cl)cc5Cl)nn34)ccc2c1 (stereo unspecified) | 5.38 nmol | 80.3% | 0.667 | 78.02% |  | 
COc1ccc2cc(C(C)c3nnc4sc(Nc5ccccc5)nn34)ccc2c1 (stereo unspecified) |  |  |  | 43.93% |  | 
COc1ccc2cc(C(C)c3nnc4sc(-c5ccc(N)cc5)nn34)ccc2c1 (stereo unspecified) | 5.85 nmol | 58.1% | 0.833 | 78.02% |  | 
CCCCNc1nn2c(C(C)c3ccc4cc(OC)ccc4c3)nnc2s1 (stereo unspecified) |  |  |  | 40.9% |  | 
COc1ccc2cc(C(C)c3nnc4sc(-c5ccc(Cl)cc5)nn34)ccc2c1 (stereo unspecified) | 5.27 nmol | 26.7% | 0.583 | 80.3% |  | 
COc1ccc2cc(C(C)c3nnc4sc(-c5ccc(Cl)cc5Cl)nn34)ccc2c1 (stereo unspecified) | 5.63 nmol | 37.2% | 0.75 | 68.93% |  | 
COc1ccc2cc(C(C)c3nnc4sc(-c5ccccc5N)nn34)ccc2c1 (stereo unspecified) |  |  |  | 54.54% |  | 
COc1ccc2cc(C(C)c3nnc4sc(Nc5ccc(F)cc5)nn34)ccc2c1 (stereo unspecified) |  |  |  | 40.14% |  | 
